The nature of series [1]: Drug uptake in human KU812 cells assessed as membrane permeability by measuring increase in fluorescence intensity at 5 umol/L incubated for 2 hrs by flow cytometry relative to THP-1 cells. The settings on record: ku812, 2 h, 5 µM, dose 5 µmol/L. The format is ADME, cell-based.
The nature of series [2]: Drug uptake in human K562 cells assessed as increase in fluorescence intensity at 1 to 10 uM incubated for 2 hrs by flow cytometry. The series is classed as ADME, cell-based. As to conditions: k562, 2 h, dose 1-10 µM. A general note: Flow cytometry measures light scatter and fluorescence of single cells or particles in a stream.
Series [3] can be described thus: Drug uptake in human K562 cells assessed as increase in fluorescence intensity at 1 to 10 umol/L incubated for 2 hrs by cell imaging based fluorescence microscopic analysis. The series is classed as ADME. The settings on record: k562, 2 h, dose 1-10 µmol/L.
A short description of series [4]: Drug uptake in human KU812 cells assessed as increase in fluorescence intensity at 1 to 10 umol/L incubated for 2 hrs by cell imaging based fluorescence microscopic analysis. The series is classed as ADME. As to conditions: ku812, 2 h, dose 1-10 µmol/L.
Series [5] can be described thus: Drug uptake in human CCRF-CEM cells assessed as increase in fluorescence intensity at 1 to 10 umol/L incubated for 2 hrs by cell imaging based fluorescence microscopic analysis. The settings on record: dose 1-10 µmol/L. The format is ADME.
Series [6] is described as follows: Cytotoxicity against human THP-1 cells assessed as cell viability at higher concentrations incubated for 48 hrs by MTT assay. The format is toxicity, cell-based. The settings on record: read-out: Activity. Background: Formazan colour is commonly taken as a measure of viable cells.
Series [7] has as its system K562. The series is described as follows: Increase in membrane permeability of IMA-PROTAC in human K562 cells assessed as potentiation of IMA-PROTAC-induced Bcr-Abl degradation at PROTAC to compound concentration ratio of 1:5 pretreated with proteasome inhibitor, MG132 and carfilzomib followed by incubation with compound for 48 hrs in presence of 3 umol/L IMA-PROTAC by western blot analysis. The format is functional, cell-based.

The subject of series [8] is K562. Kind of series: Induction of apoptosis in human K562 cells assessed as viable cells at PROTAC to compound concentration ratio of 1:5 incubated for 48 hrs in presence of 3 umol/L IMA-PROTAC by AnnexinV-FITC/PI staining based flow cytometry (reference value: 99.85%). The format is functional.
Series [9] in a line: Interaction with IMA-PROTAC assessed as induction of assembly formation by transmission electron microscopy. The series is classed as physicochemical.

Activity calls are given as the source filed them. The calls are words filed in the database; no cut-off is given here.

With `CC(C)C[C@H](NC(=O)[C@H](Cc1csc2ccccc12)NC(=O)[C@@H](Cc1ccccc1)NC(=O)[C@H](Cc1ccccc1)NC(=O)CNC(=O)[C@@H](N)CS)C(=O)N[C@@H](CCCNC(=N)N)C(=O)N[C@@H](CO)C(=O)N[C@@H](CS)C(=O)O`, the “fold change (FC)” value in series [1] came out at 4. Further, the Drug uptake result is given as “Dose-Dependent Effect” in [2], “Active” in [3], “Active” in series [4] and “Active” in series [5]. Moreover, the viability at 48 h in [6] is above 75%. Besides, the result in the series on K562 [7] was inactive. The Activity is 63.19% in the series on K562 [8] and “Not Active” in [9].

These data come from ChEMBL document CHEMBL6071133, “Discovery of novel penetrating peptides able to target human leukemia and lymphoma for enhanced PROTAC delivery” (Eur J Med Chem, 2024).
